The assay deals with Proto-oncogene tyrosine-protein kinase Src (Homo sapiens) (UniProt P12931). As to the kind of experiment: PubChem AID 1671426. The following applies: Z'-LYTE FRET kinase activity, recombinant SRC N1.

Among the data in PubChem BioAssay AID1671426 are IC50 values, retold here.

The IC50 is the midpoint of a concentration-inhibition curve.

Chain of Proto-oncogene tyrosine-protein kinase Src (Homo sapiens) (P12931 whole entry, looked up): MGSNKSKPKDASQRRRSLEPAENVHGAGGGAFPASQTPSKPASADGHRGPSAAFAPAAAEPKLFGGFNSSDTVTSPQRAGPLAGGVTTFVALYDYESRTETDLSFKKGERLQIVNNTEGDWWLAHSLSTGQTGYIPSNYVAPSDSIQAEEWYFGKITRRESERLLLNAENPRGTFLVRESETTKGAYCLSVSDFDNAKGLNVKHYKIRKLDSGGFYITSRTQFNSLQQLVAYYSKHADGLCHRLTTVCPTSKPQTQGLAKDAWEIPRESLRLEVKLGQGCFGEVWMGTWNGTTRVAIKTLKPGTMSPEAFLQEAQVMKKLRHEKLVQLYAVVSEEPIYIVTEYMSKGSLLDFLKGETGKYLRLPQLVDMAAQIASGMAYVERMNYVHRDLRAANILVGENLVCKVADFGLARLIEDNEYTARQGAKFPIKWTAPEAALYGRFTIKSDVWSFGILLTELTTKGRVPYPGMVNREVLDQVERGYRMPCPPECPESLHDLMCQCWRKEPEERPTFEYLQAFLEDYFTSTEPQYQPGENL

Regarding `COc1cc2ncnc(Nc3cccc(Cl)c3)c2cc1OC`, the concentration for half-maximal inhibition (IC50) was 1.98 µM.
